Measured values taken from ChEMBL document CHEMBL1127528, “Synthesis and carbonic anhydrase inhibitory activity of 4-substituted 2-thiophenesulfonamides” (J Med Chem, 1994).

How the values were obtained:
Carbonic anhydrase 2 = Carbonic anhydrase 2 (Homo sapiens, UniProt P00918)
Description: Activity against human carbonic anhydrase II

[1] = Ocular sensitization assay as susceptibility to nucleophilic attack by cysteine; format: functional

| Structure (SMILES) | IC50 (Carbonic anhydrase 2) [µM] | Cysteine reaction [1] [min⁻¹] |
| --- | --- | --- |
| NS(=O)(=O)c1cc(C(=O)c2ccccc2)cs1 | 0.0068 | 5e-05 |
| CC(=O)c1csc(S(N)(=O)=O)c1 | 0.016 |  |
| CCCCCCC(N)c1csc(S(N)(=O)=O)c1 (stereo unspecified) | 0.16 |  |
| CCCCNC(C)c1csc(S(N)(=O)=O)c1 (stereo unspecified) | 0.59 |  |
| CCCCC(N)c1csc(S(N)(=O)=O)c1 (stereo unspecified) | 0.626 |  |
| CCCCCC/C(=N\O)c1csc(S(N)(=O)=O)c1 | 0.0058 | 5e-05 |
| CCCC/C(=N\O)c1csc(S(N)(=O)=O)c1 | 0.015 |  |
| CCCCCC/C(=N\OC)c1csc(S(N)(=O)=O)c1 | 0.0047 | 5e-05 |
| CCCCC(=O)c1csc(S(N)(=O)=O)c1 | 0.0063 |  |
| CC(=O)Nc1nnc(S(N)(=O)=O)s1 |  | 3.5e-05 |
| CC(C)CN[C@H]1CCS(=O)(=O)c2sc(S(N)(=O)=O)cc21 |  | < 5e-05 |
| CCCCCC/C(=N\N)c1csc(S(N)(=O)=O)c1 | 0.002 | 5e-05 |
| CCCCC(O[Si](C)(C)C(C)(C)C)c1csc(S(N)(=O)=O)c1 (stereo unspecified) | 0.2 |  |
| CCCCCCC(=O)c1csc(S(N)(=O)=O)c1 | 0.005 | 5e-05 |
| CCCCCCC(O)c1csc(S(N)(=O)=O)c1 (stereo unspecified) | 0.013 | < 5e-05 |
